What was measured:
[1] = Ghent et al (1993); U.S. Pat. No. 4,555,347; cited from earlier work
endometriomas = assay: Human clinical trial: resolution or growth of endometriomas followed by monthly ultrasound under TFI chemotherapy and antioxidant counter therapy; format: in vivo
Description: When TFI chemotherapy is stopped to allow the thyroid a rest, we see a general improvement in iron scavenging at lower dose rates afterwards (which hints at a multi-step process that can be slowly poisoned, most probably by I^− to tri-iodide) and usually a recovery to visibility in those in-completely resolved endometriomas during this treatment hiatus. We timed this 3rd party evidence trial to happen as we approached a pre-planned thyroid rest period, taking monthly ultrasounds before to position each active endometrioma as closely as possible, and include three such rest periods, plus two thyroid examinations.
The simplest test was to gently down-regulate the CMI in a patient while that patient was still on TFI chemotherapy, and to observe what happens next. The patient then took 800 international units of vitamin E a day (as a tocopherol). […] A second antioxidant, dietary zinc (10 mg/day), was added to the regimen. Use of both antioxidants allowed us to say that this was not a special case for either antioxidant, though the cumulative effects were very obvious. Vitamin E was stopped two weeks before zinc, to provide a period of zinc only. TFI-induced resolution was still blocked.
The patient then went into their thyroid rest period, and as usual a few recently but incompletely resolved endometriomas developed, but so did two that had been thought resolved from two years ago for a total of five.

[2] = test system: normal self-cells of the uterus; assay: Transvaginal ultrasound of uterine lining / normal self-cells of the uterus, and menstrual period cycle, in the same patient; format: in vivo, human; conditions: patient taking aspirin with TFI
Description: In using transvaginal ultra sound, it was possible to view and compare the thickness of the uterine lining, and no abnormal change was observed despite all the activity in the peritoneal cavity.
It should be noted that use of counter chemotherapy produced no change in those similar normal self-cells of the uterus as detectable by ultrasound. All of these ultrasounds were taken at 3 to four days after the patient's periods, except the last one as they had their period cycle extended by taking aspirin.

## II [TFI, thermodynamically free iodine]
[1]
  toxicity compared with other forms of iodine: least toxicity of all forms of iodine
endometriomas; clinical tests (FIG. 2), patients, administration of iodine
  clean-up of endometrial cell debris, aberrant organ attachments, endometriomas and stratum functional cell masses: effective
endometriomas; otherwise takes about 15 years without TFI
  time for resolution of endometriomas (Stage I to Stage IV process): about one or two
endometriomas; use of TFI in the endometriosis patient
  pain: relief from pain

## [Zn] [zinc]
endometriomas; period of zinc only (vitamin E stopped two weeks before zinc), dietary zinc 10 mg/day, on TFI
  TFI-induced resolution of endometriomas: still blocked

## CC(=O)Oc1ccccc1C(=O)O [aspirin, acetylsalicylic acid]
[2]
  period cycle: extended

## Cc1c(C)c2c(c(C)c1O)CC[C@@](C)(CCC[C@H](C)CCC[C@H](C)CCCC(C)C)O2 [vitamin E, alpha tocopherol]
endometriomas; patient still on TFI chemotherapy, 800 international units of vitamin E a day
  change in endometriomas (number and size): Minor change was observed, with new endometriomas developing and old ones rapidly increasing in size
